Legend:
[1] = system: α1β3γ2L GABAA receptors, bulky mutation at α1M236; design: key: +: Mutant-function studies are deemed positive when bulky mutations (mostly tryptophans) at the site significantly reduce positive modulation by anesthetics; -: Negative results are indicated by “–“ symbols; conditions: cited from earlier work
[2] = system: α1β3γ2L GABAA receptors, bulky mutation at α1S270; design: key to Mutant-function result, α1+ (M2, M3) S270: +: Mutant-function studies are deemed positive when bulky mutations (mostly tryptophans) at the site significantly reduce positive modulation by anesthetics; -: Negative results are indicated by “–“ symbols; conditions: cited from earlier work
[3] = system: α1β3γ2L GABAA receptors, bulky mutation at α1A291; design: method as in PMID 30696720; key: +: Mutant-function studies are deemed positive when bulky mutations (mostly tryptophans) at the site significantly reduce positive modulation by anesthetics; -: Negative results are indicated by “–“ symbols; conditions: cited from earlier work
[4] = system: α1β3γ2L GABAA receptors, bulky mutation at β3M227; design: key: +: Mutant-function studies are deemed positive when bulky mutations (mostly tryptophans) at the site significantly reduce positive modulation by anesthetics; -: Negative results are indicated by “–“ symbols; conditions: cited from earlier work
[5] = system: α1β3γ2L GABAA receptors, bulky mutation at β3N265; design: method as in PMID 30696720, PMID 32247113; key: +: Mutant-function studies are deemed positive when bulky mutations (mostly tryptophans) at the site significantly reduce positive modulation by anesthetics; -: Negative results are indicated by “–“ symbols; conditions: cited from earlier work
[6] = system: α1β3γ2L GABAA receptors, bulky mutation at β3M286; design: method as in PMID 30696720; key: +: Mutant-function studies are deemed positive when bulky mutations (mostly tryptophans) at the site significantly reduce positive modulation by anesthetics; -: Negative results are indicated by “–“ symbols; conditions: cited from earlier work
[7] = system: α1β3γ2L GABAA receptors, bulky mutation at γ2I242; design: key to Mutant-function result, γ2– (M1) I242: +: Mutant-function studies are deemed positive when bulky mutations (mostly tryptophans) at the site significantly reduce positive modulation by anesthetics; -: Negative results are indicated by “–“ symbols; conditions: cited from earlier work
[8] = system: α1β3γ2L GABAA receptors, bulky mutation at γ2S280; design: method as in PMID 30696720, PMID 32247113; key: +: Mutant-function studies are deemed positive when bulky mutations (mostly tryptophans) at the site significantly reduce positive modulation by anesthetics; -: Negative results are indicated by “–“ symbols; conditions: cited from earlier work
[9] = target: T1, α1β3M286Cγ2L GABAA receptors (Homo sapiens, UniProt P14867+P18507+P28472, M311C); assay: Drug protection from pCMBS modification (SCAMP); type: cell-based; design: key: +: Mutant-function studies are deemed positive when bulky mutations (mostly tryptophans) at the site significantly reduce positive modulation by anesthetics; -: Negative results are indicated by “–“ symbols; conditions: results of this study (*); etomidate cell also cites [16]
T1 construct: expressed in transfected cells; host or cells: Xenopus oocytes injected with capped mRNA, 1α:1β:5γ
T1 sequence (P14867 28-456): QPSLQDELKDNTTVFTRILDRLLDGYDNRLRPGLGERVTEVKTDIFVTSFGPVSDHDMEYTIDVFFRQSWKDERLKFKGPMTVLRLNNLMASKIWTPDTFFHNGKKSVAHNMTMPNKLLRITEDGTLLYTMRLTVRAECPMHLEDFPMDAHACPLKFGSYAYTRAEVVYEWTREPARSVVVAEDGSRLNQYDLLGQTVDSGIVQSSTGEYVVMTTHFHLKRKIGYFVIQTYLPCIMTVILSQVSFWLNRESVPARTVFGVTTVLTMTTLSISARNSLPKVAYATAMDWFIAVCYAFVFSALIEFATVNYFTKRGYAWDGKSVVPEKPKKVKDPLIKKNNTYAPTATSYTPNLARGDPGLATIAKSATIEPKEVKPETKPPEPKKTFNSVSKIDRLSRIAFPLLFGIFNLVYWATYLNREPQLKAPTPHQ
T1 sequence (P28472 26-473 M311C): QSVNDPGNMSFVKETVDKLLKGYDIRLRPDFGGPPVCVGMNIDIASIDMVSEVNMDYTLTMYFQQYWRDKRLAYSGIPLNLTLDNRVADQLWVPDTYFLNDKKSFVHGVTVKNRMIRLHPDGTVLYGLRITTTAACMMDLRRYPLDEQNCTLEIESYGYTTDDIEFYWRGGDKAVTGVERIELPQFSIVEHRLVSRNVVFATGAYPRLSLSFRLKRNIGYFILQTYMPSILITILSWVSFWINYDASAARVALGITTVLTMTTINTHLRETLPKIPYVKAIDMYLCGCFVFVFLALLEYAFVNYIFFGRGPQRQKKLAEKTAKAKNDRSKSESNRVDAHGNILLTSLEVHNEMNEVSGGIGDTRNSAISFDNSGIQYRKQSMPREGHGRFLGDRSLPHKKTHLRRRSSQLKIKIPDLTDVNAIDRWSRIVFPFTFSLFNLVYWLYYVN
T1 sequence (P18507 40-475): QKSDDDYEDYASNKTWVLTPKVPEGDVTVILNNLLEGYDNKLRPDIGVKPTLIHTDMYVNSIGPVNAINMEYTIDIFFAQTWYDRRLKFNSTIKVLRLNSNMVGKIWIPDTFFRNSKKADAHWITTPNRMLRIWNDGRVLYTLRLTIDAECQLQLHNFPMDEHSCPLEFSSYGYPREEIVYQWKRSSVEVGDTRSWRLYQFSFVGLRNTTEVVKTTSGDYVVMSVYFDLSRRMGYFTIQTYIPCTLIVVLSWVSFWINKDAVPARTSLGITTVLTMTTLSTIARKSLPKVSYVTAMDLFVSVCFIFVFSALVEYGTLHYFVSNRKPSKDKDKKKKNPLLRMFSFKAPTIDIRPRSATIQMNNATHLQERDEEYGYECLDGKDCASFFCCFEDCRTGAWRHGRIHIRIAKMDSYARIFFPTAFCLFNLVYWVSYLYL
Description: (§1) Experiments were performed in ND-96 buffer at room temperature (20–22°C). Oocytes were placed in a low-volume (30µl) flow chamber and impaled with borosilicate microelectrodes filled with 3M KCl (resistance 0.5–3 MΩ) and voltage-clamped at −50 mV (model OC-725C; Warner Instruments, Hamden, CT, USA). Superfusate solutions in ND-96 were delivered at 2 ml/min from glass syringe reservoirs via computer-controlled valves (VC-8; Warner Instruments), a micro-manifold (ALA-VM8; ALA Scientific Instruments, Farmingdale, NY, USA), and PTFE tubing. Currents were digitized at 200 Hz on a computer running ClampEx v8.0 software (Molecular Devices, San Jose, CA, USA). Digitized traces were filtered with a 10-Hz low-pass Bessel function, leak corrected and analyzed for peak amplitude off-line using Clampfit v8 software (Molecular Devices).
(§2) Drug protection from pCMBS modification was assessed under pCMBS exposure conditions that produced approximately half of the maximal modification ratio for each mutant receptor, and a least a value of 3. This approach balanced the magnitude of functional modification signals (smaller with less pCMBS exposure) against the challenge of using a reversibly bound ligand to competitively block an irreversible covalent cysteine-modifying reaction. […] Each oocyte was used in a single SCAMP experiment. […] Etomidate was used as a positive control for anesthetic protection in α1M236C and β3M286C mutants and as a negative control in α1S270C, α1A291C, β3L231C, γ2S301C, γ2I242C, and γ2L246C mutants. R-mTFD-MPAB was used as a positive control in α1S270C, α1A291C, β3L231C, and γ2LS301C mutants and as a negative control in α1M236C and β3M286C mutants. For each cysteine mutant and protective drug combination, five oocytes were studied.
(§3) Non-linear least squares fits and statistical analyses were performed in Prism 10.4.0. (GraphPad Software, San Diego, CA, USA). […] Protection (steric inhibition of pCMBS modification) was inferred when anesthetics produced significant reductions in modification ratios relative to control (no anesthetic) values. The statistical significance threshold was p < 0.05.

[10] = target: T2, α1S270Cβ3γ2L GABAA receptors (Homo sapiens, UniProt P14867+P18507+P28472, S297C); assay: Drug protection from pCMBS modification (SCAMP); type: cell-based; design: key: +: Mutant-function studies are deemed positive when bulky mutations (mostly tryptophans) at the site significantly reduce positive modulation by anesthetics; -: Negative results are indicated by “–“ symbols; conditions: results of this study (*)
T2 construct: expressed in transfected cells; host or cells: Xenopus oocytes injected with capped mRNA, 1α:1β:5γ
T2 sequence (P14867 28-456 S297C): as the sequence (P14867 28-456) above, with S270C counted along it
T2 sequence (P28472 26-473): as the sequence (P28472 26-473 M311C) above, with C286M counted along it
T2 sequence (P18507 40-475): as the sequence (P18507 40-475) above
Description: as §1, §2, §3

| Compound | Mutant-function result, α1– (M1) M236 [1] | Mutant-function result, α1+ (M2, M3) S270 [2] | Mutant-function result, α1+ (M2, M3) A291 [3] | Mutant-function result, β3– (M1) M227 [4] | Mutant-function result, β3+ (M2, M3) N265 [5] | Mutant-function result, β3+ (M2, M3) M286 [6] | Mutant-function result, γ2– (M1) I242 [7] | Mutant-function result, γ2+ (M2, M3) S280 [8] | SCAMP result, β3+ (M2, M3) M286 [9] | SCAMP result, α1+ (M2, M3) S270 [10] | effect of mutation on receptor modulation by the anesthetic ([2]; α1S270I mutation) | effect of mutation on receptor modulation by the anesthetic ([7]; γ2I242W mutation) |
| --- | --- | --- | --- | --- | --- | --- | --- | --- | --- | --- | --- | --- |
| C=CCC1(c2cccc(C3(C(F)(F)F)N=N3)c2)C(=O)NC(=O)N(C)C1=O (stereo not drawn) [R-mTFD-MPAB, R-5-allyl-1-methyl-5-(m-trifluoromethyl-diazirynylphenyl) barbituric acid] | -^[9] | +^[13, 15] | +^[13] | +^[9, 15], | -^[13, 15] | -^[13] | -^[9, 15] | +^[13, 15] | -* |  |  |  |
| CCOC(=O)c1cncn1[C@H](C)c1ccccc1 [etomidate, R-etomidate] | +^[9], [12] | -^[13, 15] | -^[13] | -^[9, 15] | +^[13, 15] | +^[13] | -^[9, 15] | -^[13, 15] |  | -* |  |  |
| CC(C)c1cc(C2(C(F)(F)F)N=N2)cc(C(C)C)c1CO [pTFD-di-iPr-BnOH] |  | +^[15] |  | +^[15] | -^[15] |  | +^[15] | -^[15] | -* | -* | significantly reduced | significantly reduced |

— PMC12591484 (PLOS One, 2025)
